Active and inactive are the calls of the source.
How the values were obtained:
[1] = Luminescence Cell-Based Dose Confirmation HTS to Identify Inhibitors of Polyadenylation.; format: functional
[2] = target: DNA (cytosine-5)-methyltransferase 1 (Homo sapiens, UniProt P26358); assay: DNMT1 methyltransferase inhibitors, confirmation, biochemical, fluorescent molecular beacon (AID 602386); format: functional
[3] = DNA binding of candidate compounds, dose response, artefact control for RAD54 inhibitor project, biochemical, fluorescence polarization, cherry-pick (AID 651673); format: functional
[4] = target: T1, DNA repair and recombination protein RAD54-like (Homo sapiens, UniProt Q92698); assay: inhibitors of human RAD54 branch migration, confirmation, biochemical, fluorescence, cherry-picked samples, dose series (AID 651657); format: functional
T1 sequence (Q92698 whole entry): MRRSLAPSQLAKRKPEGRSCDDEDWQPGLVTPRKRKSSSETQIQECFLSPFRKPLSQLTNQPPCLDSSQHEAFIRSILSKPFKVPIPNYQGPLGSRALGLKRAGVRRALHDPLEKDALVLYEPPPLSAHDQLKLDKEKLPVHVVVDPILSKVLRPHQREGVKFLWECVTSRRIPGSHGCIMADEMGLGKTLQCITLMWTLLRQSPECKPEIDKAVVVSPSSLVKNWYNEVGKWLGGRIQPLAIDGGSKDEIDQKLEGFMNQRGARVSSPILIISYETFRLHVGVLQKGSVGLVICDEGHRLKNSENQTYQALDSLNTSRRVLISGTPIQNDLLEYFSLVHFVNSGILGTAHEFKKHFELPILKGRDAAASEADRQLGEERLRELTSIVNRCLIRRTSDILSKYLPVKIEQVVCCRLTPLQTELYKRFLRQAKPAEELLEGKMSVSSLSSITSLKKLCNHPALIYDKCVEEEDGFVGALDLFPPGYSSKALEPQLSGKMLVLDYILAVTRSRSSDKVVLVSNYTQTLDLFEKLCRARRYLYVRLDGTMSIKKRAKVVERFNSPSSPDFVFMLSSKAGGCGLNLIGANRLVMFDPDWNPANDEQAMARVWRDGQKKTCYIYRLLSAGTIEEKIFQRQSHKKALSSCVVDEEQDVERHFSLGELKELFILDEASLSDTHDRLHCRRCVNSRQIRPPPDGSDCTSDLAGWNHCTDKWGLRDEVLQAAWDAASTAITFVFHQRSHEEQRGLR

[5] = target: T2, DNA repair protein RAD52 homolog (Homo sapiens, UniProt P43351); format: functional, biochemical
T2 sequence (P43351 whole entry): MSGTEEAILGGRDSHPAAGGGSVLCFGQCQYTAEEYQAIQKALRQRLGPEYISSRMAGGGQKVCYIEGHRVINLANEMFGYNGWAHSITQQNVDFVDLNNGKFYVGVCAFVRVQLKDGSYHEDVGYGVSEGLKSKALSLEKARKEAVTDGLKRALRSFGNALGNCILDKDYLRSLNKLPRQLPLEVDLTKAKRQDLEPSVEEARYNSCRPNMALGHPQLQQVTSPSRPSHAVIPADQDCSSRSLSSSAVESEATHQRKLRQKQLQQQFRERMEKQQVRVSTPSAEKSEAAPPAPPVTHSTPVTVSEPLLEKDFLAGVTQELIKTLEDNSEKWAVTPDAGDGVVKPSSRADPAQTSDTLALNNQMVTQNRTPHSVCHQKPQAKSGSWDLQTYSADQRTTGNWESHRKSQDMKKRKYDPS

[6] = target: Heat shock protein HSP 90-alpha (Homo sapiens, UniProt P07900); assay: Luminescence-based dose response biochemical high throughput screening assay for inhibitors of the Heat Shock Protein 90 (HSP90). [Related pubchem assays: 1831 (Summary AID.), 1846 (Confirmation screen.), 1789 (Primary screen.)]
[7] = Dose-response inhibition of insulin secretion in a rat insulinoma line at 5 mM glucose (AID 1117331); format: functional, cell-based; details: INS-1E
cells = format: functional, cell-based; details: INS-1E
[8] = Luminescent dose response cell-based high throughput screening assay for inhibitors of the Janus kinase 2 mutant JAK2V617F. [Related pubchem assays: 1446 (Primary screen.), 1521 (Confirmation assay.), 1486 (Counter screen.)]; format: functional
BJ [9] = assay: cytotoxicity toward BJ-TERT fibroblasts, dose response, cell-based, RAS-independent, luminescence (AID 1933); format: functional; details: Homo sapiens
BJ [10] = assay: cells; format: functional, cell-based; details: Homo sapiens
BJ [11] = assay: cytotoxicity toward BJ-TERT-LT-ST fibroblasts, dose response, cell-based, RAS-independent, luminescence (AID 1935); format: functional; details: Homo sapiens;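 note: BJ fibroblasts immortalized with TERT plus LT and ST oncogenes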
[12] = cytotoxicity toward DRD oncogenic fibroblasts, dose response, cell-based, non-viral oncogenic, luminescence (AID 1934); format: functional; details: Homo sapiens
BJ [13] = assay: cytotoxicity toward Ras-transformed BJeLR fibroblasts, dose response, cell-based, alamar blue fluorescence, cherrypicked samples (AID 2631); format: functional; details: Homo sapiens;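 note: confirmatory dose-response assay in RAS-dependent BJ fibroblasts engineered with TERT, LT and ST, with cytotoxicity read by fluorescence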
[14] = P. falciparum 3D7-ScDHODH growth inhibitors, dose response, SYBR Green, dry powder samples (AID 1159570); format: functional, cell-based;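 note: parasite growth measured after 72 hours of compound exposure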
[15] = HepG2 cell cytotoxicity, dose response, cytotoxicity control, plate reader, dry powder samples (AID 1159569); format: functional, cell-based;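 note: inhibitor potency with signal falling toward the positive control level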
[16] = P. falciparum Dd2 growth inhibitors, dose response, SYBR Green, dry powder samples, set 9 (AID 1159568); format: functional, cell-based
[17] = P. falciparum Dd2 growth inhibitors, dose response, SYBR Green, cherry-picked samples (AID 1159567); format: functional, cell-based
[18] = P. falciparum Dd2 growth inhibitors, dose response, SYBR Green, dry powder samples (AID 1159566); format: functional, cell-based;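 note: potency for growth inhibition with lower SYBR green DNA signal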
[19] = HepG2 cell cytotoxicity, dose response, cytotoxicity control, cherry-picked samples (AID 1159577); format: functional, cell-based
[20] = Plasmodium falciparum Dd2 Sybr green parasite growth Measured in Cell-Based and Microorganism Combination System Using Plate Reader - 2153-01_Inhibitor_Dose_DryPowder_Activity_Set3.; format: functional
[21] = P. falciparum ATP4 D1247Y mutant growth inhibitors, dose response, NITD609-resistant line, SYBR Green, dry powder (AID 1159571); format: functional, cell-based;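 note: parasites synchronized at ring stage by sorbitol before testing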
[22] = target: Aryl hydrocarbon receptor (Homo sapiens, UniProt P35869); assay: Luminescence-based cell-based high throughput dose response assay for activators of the Aryl Hydrocarbon Receptor (AHR). [Related pubchem assays: 2796 (Primary screen (AHR activators in singlicate)), 2845 (Confirmation screen (AHR activators in triplicate)), 434939 (Counterscreen (PXR activators in triplicate)), 2804 (Summary (AHR activators))]; format: ADME
[23] = half-maximal inhibitory concentration for glucagon-like peptide-1 release, STC-1 cell line, dose-response (AID 1117345); format: functional, cell-based
[24] = Glucagon-like peptide 1 release potency, NCI-H716 cell line, dose-response, half-maximal inhibitory concentration (AID 1117344); format: functional, cell-based

Sequence of Aryl hydrocarbon receptor (P35869 whole entry): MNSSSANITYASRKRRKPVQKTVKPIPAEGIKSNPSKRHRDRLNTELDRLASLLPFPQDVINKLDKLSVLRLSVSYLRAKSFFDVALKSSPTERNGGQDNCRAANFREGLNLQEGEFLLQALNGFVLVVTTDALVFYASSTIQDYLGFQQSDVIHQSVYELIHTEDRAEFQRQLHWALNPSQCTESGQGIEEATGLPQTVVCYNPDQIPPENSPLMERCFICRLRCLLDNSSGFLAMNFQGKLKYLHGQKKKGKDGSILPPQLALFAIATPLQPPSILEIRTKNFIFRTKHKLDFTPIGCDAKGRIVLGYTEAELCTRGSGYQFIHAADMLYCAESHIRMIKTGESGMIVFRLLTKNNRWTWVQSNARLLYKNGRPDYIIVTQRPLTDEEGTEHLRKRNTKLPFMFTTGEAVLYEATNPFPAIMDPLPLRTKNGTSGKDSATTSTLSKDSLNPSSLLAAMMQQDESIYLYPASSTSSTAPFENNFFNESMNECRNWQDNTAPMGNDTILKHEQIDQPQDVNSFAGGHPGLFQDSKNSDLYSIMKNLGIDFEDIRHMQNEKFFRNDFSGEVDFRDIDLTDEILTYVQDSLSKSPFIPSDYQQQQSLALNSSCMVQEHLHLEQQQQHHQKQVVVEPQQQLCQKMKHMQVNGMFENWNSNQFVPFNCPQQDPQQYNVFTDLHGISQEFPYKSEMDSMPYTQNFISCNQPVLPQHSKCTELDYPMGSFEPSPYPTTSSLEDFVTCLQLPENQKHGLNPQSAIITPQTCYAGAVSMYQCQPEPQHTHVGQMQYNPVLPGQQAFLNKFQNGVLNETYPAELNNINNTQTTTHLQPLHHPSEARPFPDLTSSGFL
Sequence of DNA (cytosine-5)-methyltransferase 1 (P26358 whole entry): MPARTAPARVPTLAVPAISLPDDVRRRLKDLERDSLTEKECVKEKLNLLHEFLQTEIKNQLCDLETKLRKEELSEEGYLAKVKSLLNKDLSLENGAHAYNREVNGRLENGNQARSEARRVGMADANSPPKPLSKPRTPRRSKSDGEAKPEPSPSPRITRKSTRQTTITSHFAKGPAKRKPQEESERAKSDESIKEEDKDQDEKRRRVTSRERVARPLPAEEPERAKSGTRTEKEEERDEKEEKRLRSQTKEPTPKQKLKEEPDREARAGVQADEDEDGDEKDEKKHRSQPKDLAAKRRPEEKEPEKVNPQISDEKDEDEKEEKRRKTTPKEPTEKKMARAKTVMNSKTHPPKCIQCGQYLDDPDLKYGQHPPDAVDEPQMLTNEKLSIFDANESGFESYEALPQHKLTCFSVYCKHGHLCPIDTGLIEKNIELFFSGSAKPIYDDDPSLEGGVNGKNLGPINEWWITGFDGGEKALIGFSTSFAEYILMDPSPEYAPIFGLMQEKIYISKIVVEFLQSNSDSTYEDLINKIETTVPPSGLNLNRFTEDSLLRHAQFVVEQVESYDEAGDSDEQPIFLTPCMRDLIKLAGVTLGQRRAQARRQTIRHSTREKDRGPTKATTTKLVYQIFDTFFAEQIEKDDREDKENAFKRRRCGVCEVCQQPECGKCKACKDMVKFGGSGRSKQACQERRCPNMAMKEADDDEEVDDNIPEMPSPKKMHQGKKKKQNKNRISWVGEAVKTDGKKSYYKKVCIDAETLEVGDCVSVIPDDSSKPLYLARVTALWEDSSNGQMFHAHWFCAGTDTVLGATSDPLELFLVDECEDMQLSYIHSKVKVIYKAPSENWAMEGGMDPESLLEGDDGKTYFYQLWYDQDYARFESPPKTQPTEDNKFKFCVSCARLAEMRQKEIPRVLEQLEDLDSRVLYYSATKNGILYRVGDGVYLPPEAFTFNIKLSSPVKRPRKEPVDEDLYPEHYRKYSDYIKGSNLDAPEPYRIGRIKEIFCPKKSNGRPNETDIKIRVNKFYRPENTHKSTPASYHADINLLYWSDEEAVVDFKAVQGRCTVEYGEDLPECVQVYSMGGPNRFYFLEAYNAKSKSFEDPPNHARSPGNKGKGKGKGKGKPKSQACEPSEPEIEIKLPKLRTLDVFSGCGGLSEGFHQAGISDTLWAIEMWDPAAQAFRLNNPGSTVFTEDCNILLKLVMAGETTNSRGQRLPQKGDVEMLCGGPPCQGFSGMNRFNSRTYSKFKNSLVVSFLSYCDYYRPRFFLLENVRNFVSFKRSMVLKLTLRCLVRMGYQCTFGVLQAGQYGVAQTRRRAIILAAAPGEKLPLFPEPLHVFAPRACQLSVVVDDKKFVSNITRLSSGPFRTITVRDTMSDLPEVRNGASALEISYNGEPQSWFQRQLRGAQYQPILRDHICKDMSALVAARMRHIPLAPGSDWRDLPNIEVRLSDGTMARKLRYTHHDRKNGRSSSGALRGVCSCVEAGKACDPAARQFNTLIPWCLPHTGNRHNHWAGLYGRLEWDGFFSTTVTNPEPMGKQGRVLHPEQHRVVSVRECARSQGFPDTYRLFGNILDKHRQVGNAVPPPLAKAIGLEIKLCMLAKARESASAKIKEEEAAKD

In the case of `CN(C)CCc1cc2c(c3c1ccc1ccccc13)OCO2`, the EC50 [1] is reported as > 120 µM (not active), the IC50 [2] is reported as > 99 µM (inactive) and the AC50 [3] is reported as 39.9 µM (active). The AC50 [4] was 4.76 µM (active) and the AC50 [5] was 1.29 µM (active).
With `COC(=O)c1ccc(NC(=O)c2ccc(C)cc2)o1` the IC50 [6] was > 60 µM (not active).
For `CC(C)(Cc1c[nH]c2ccccc12)NCC(O)COc1ccccc1C#N` (stereo not given) [BUCINDOLOL], the IC50 [7] was 15 µM (inactive) and the IC50 (cells) was > 33.3 µM (inactive).
For `CCOc1ccc(Nc2nc(N)nc(CCl)n2)cc1`, the IC50 [8] was 0.597 µM (active), the EC50 (BJ [9]) was 0.839 µM (inconclusive) and the EC50 (BJ [10]) was 1.8 µM (active). The EC50 (BJ [11]) was 10.8 µM (inconclusive), the EC50 [12] was 0.694 µM (active) and the EC50 (BJ [13]) was 5.73 µM (active).
With `CCCNC(=O)N1[C@H](C#N)[C@H](c2ccc(C#Cc3ccc(F)cc3)cc2)[C@@H]1CO` the AC50 [14] was 3.48 µM (active), the AC50 [15] was 41.4 µM (active) and the AC50 [16] was 0.0575 µM (active). For the same compound, the AC50 [17] was < 0.3 µM (active), the AC50 [18] was 0.123 µM (active) and the AC50 [19] was > 39 µM (inactive). The AC50 [20] was 0.15 µM (active) and the AC50 [21] was 0.101 µM (active).
For `CCOCC(=O)Nc1cccc(-c2nc3cccnc3s2)c1C`, the EC50 [22] was 4.22 µM (active).
With `CN(C)[C@@H]1C(O)=C(C(=O)NCN2CCCC2)C(=O)[C@@]2(O)C(O)=C3C(=O)c4c(O)cccc4[C@@](C)(O)C3C[C@@H]12` (stereo not given in full) the IC50 [23] was > 40 µM (inactive) and the IC50 [24] was > 40 µM (inactive).
